The target in one test is T1, E. coli PDF (Escherichia coli, UniProt P0A6K3).
T1 construct: made in house
Nature of the test: Aminopeptidase assay of PDF inhibition. Type of test: biochemical. The method, then: Aminopeptidase Assay of Compound 2 The inhibition constant was also determined independently using and aminopeptidase assay.^37 Assay reactions (total volume of 500 μL) containing 50 mM Hepes (pH 7.0), 150 mM NaCl, 8.0 nM E. coli PDF, and 0-50 nM inhibitor 2 were incubated on ice for 2 h. Prior to reaction initiation, the mixture was brought to room temperature for 10 min. The PDF reaction was then initiated by the addition of substrate formyl-Met-Leu-p-nitronilide (final concentration 110 μM) and allowed to proceed for 3 min at room temperature before being quenched by heating at 95° C. for 10 min (the inactivation process is usually complete within the first 30 s). After cooling to room temperature, 1.0 unit of Aeromonas aminopeptidase (AAP) was added to the solution and the mixture was incubated for 15 min at room temperature. The absorbance at 405 nm was measured on a UV-Vis spectrophotometer. […] For all end-point assay reactions, the substrate to product conversion was kept at <20%.

The test system of test [1] is S. pneumoniae (ATCC 6301). Nature of the test: Antibacterial activity (MIC). In kind it is cell-based. The settings on record: Streptococcus pneumoniae, ATCC6301. The method, then:
(§1) Antibacterial Activity of PDF Inhibitors Inhibitors 2-7E were tested against two or more bacterial strains for antibacterial activities.

Test [2] concerns H. influenzae (ATCC 31517). In words: Antibacterial activity (MIC). Type of test: cell-based. The settings on record: Haemophilus influenzae, ATCC31517. The method, then:
as §1

Another test concerns E. faecalis (ATCC 29212). Nature of the test: Antibacterial activity (MIC). Type of test: cell-based. The settings on record: Enterococcus faecalis, ATCC29212. The method, then:
as §1

The subject of test [3] is S. pneumoniae (ATCC 6303). Nature of the test: Antibacterial activity (MIC). Type of test: cell-based. Particulars: Streptococcus pneumoniae, ATCC6303. How it is done:
as §1

Test [4] concerns M. catarrhalis (ATCC 37054). Nature of the test: Antibacterial activity (MIC). Type of test: cell-based. The settings on record: Moraxella catarrhalis, ATCC37054. How it is done:
as §1

Another test has as its system S. aureus (ATCC 29213). In words: Antibacterial activity (MIC). Type of test: cell-based. Particulars: Staphylococcus aureus, ATCC29213. How it is done: as §1
The test system of test [5] is S. pneumoniae (ATCC 49619). In words: Antibacterial activity (MIC). Type of test: cell-based. Particulars: Streptococcus pneumoniae, ATCC49619. How it is done:
as §1

The next test relates to B. subtilis. In words: Antibacterial activity (cell growth, MIC). Type of test: cell-based. Particulars: Bacillus subtilis. How it is done: (§2) FIG. 5 Inhibition of B. subtilis (A) and E. coli (B) cell growth by inhibitor 2. An overnight culture was diluted 1000-fold into 2 mL of fresh LB medium containing the specified concentrations of inhibitor 2 and incubated at 37° C. Cell densities were measured at the specified times on a UV-vis spectrophotometer.
(§3) The in vitro antibacterial activity of the cyclic inhibitor was tested against E. coli and Bacillus subtilis, the representative Gram-negative and Gram-positive bacteria, respectively.
(§4) Antimicrobial Susceptibility Testing. For Escherichia coli and Bacillus subtilis, cell growth was monitored on the Lambda-20 UV/Vis spectrophotometer at 600 nm. A single bacterial colony from a plate culture was grown overnight in LB media and was diluted 1000-fold into 2 mL of fresh growth medium containing 0-64 μg/mL of test agent in a 5-mL glass test tube shaken at a speed of 250 rpm. Cell growth (at 37° C.) was monitored for 0-600 min.
as §1

Another test concerns E. coli. Nature of the test: Antibacterial activity (cell growth, MIC). In kind it is cell-based. Particulars: Escherichia coli. How it is done:
as §2, §3, §4, §1

The target of test [6] is T2, Co(II)-substituted E. coli PDF (Escherichia coli, UniProt P0A6K3).
T2 construct: made in house
Nature of the test: PDF assay coupled to formate dehydrogenase. Type of test: biochemical.

Another test has as its target MMP-9 (Homo sapiens, UniProt P14780). In words: Inhibition of human matrix metalloproteases. In kind it is biochemical. Particulars: read-out: percentage of MMP-9 activity remaining. The method, then:
(§5) Inhibition of Metalloproteases (MMP) Several of the inhibitors were tested for inhibition of human matrix metalloproteases, which are often used as indicators of inhibitor selectivity (no inhibition of MMP is desired). Each inhibitor was tested at two different concentrations (1.0 and 10 μM). The values reported are the percentage of MMP activity remaining in the presence of added inhibitor.

In a further test the target is MMP-3 (Homo sapiens, UniProt P08254). Nature of the test: Inhibition of human matrix metalloproteases. In kind it is biochemical. The settings on record: read-out: percentage of MMP-3 activity remaining. How it is done: as §5
A further test has as its target T3, MMP2 (Homo sapiens, UniProt P08253).
T3 sequence (P08253 110-660): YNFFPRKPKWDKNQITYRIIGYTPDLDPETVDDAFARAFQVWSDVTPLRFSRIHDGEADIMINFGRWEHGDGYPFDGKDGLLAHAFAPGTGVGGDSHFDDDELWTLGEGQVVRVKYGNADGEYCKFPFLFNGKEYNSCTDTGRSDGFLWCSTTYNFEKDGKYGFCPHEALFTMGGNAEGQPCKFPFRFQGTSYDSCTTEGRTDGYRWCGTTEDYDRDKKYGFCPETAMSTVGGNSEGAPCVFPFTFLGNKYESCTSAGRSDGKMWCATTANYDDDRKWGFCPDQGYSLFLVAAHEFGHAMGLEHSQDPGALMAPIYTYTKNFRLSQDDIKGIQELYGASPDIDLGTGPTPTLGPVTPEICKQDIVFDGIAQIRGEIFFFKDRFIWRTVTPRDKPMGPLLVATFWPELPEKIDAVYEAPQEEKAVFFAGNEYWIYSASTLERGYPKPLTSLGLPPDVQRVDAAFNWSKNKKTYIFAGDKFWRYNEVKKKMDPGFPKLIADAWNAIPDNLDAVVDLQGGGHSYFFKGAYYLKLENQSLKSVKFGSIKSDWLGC
Nature of the test: Inhibition of human matrix metalloproteases. Particulars: read-out: percentage of MMP2 activity remaining. Type of test: biochemical. The method, then:
as §5

The target in the next test is T4, MMP-1 (Homo sapiens, UniProt P03956).
T4 sequence (P03956 100-469): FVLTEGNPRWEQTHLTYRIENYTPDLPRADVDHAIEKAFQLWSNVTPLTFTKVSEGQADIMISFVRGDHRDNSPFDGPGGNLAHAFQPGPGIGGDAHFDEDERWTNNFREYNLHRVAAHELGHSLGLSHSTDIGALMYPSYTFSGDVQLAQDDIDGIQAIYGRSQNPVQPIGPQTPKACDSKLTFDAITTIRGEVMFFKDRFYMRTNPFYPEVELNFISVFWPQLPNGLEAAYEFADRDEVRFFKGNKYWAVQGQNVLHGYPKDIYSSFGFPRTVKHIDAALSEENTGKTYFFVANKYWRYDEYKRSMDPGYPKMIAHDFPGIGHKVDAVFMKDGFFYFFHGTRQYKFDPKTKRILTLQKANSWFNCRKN
Nature of the test: Inhibition of human matrix metalloproteases. In kind it is biochemical. The settings on record: read-out: percentage of MMP-1 activity remaining. The method, then: as §5

Here are results for one molecule from patent US7538085B2, “Peptide deformylase inhibitors as novel antibiotics” (The Ohio State University Research Foundation, priority 2003, dated 2009).

In brackets after ≈: the same amount, converted by molar mass. Several values for one entry are separate records, joined by “and”; a condition that tells them apart may be missing. Equal entries are not always repeated. Where two headings read alike, the source gives them in different places.

Chain of MMP-3 (P08254 100-477): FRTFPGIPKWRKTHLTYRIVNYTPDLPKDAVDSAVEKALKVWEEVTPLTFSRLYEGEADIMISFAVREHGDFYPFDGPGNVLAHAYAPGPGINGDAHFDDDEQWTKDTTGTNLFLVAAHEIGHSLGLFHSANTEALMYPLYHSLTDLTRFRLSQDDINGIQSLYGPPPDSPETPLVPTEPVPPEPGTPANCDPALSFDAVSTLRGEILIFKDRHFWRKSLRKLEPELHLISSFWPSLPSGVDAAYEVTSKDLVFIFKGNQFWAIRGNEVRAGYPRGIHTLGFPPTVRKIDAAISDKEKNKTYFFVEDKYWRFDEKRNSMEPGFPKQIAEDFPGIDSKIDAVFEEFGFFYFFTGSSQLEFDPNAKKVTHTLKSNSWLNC
Chain of MMP-9 (P14780 94-707): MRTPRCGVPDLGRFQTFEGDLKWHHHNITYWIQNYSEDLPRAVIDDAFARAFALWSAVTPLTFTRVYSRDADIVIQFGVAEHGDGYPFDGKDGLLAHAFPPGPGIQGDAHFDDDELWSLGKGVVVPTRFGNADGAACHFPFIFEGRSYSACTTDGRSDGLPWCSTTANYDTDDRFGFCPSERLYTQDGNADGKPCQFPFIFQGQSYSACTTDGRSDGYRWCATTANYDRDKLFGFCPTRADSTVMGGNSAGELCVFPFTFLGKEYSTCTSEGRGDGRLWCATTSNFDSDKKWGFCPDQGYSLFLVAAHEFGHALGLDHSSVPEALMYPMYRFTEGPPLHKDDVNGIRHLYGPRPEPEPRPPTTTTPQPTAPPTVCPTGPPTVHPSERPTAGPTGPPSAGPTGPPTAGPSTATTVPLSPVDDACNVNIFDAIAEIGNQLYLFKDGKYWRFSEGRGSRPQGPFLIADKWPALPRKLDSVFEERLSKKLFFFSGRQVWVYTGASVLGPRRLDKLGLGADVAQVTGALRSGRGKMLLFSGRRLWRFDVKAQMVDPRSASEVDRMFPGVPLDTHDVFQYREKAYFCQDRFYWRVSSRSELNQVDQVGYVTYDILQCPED
T2 sequence (P0A6K3 whole entry): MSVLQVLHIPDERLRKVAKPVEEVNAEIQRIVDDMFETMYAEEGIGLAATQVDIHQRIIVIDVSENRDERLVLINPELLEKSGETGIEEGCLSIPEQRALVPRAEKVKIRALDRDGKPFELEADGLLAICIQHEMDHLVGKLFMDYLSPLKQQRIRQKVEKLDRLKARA
T1 sequence (P0A6K3 whole entry): as above

Take `CC(C)(C)C1NC(=O)C(CN(O)C=O)CCCCCCCCCNC1=O` (stereo not drawn) [Compound 2, N-(3-tert-Butyl-2,5-dioxo-1,4-diaza-cyclopentadec-6-ylmethyl)-N-hydroxy-formamide]: the Ki on E. coli PDF was 0.33 ± 0.15 nM; in test [6], 0.67 ± 0.2 nM. In addition, the MIC in test [1] is 4 µg/mL (≈ 10.8 µM); in test [2], 0.5 µg/mL (≈ 1.35 µM); in the test with E. faecalis (ATCC 29212) it was over 32 µg/mL; in [3], 2 µg/mL (≈ 5.41 µM); in [4], 0.62 µg/mL (≈ 1.68 µM); with S. aureus (ATCC 29213) it was 16 µg/mL (≈ 43.3 µM). For the same molecule, the MIC is 4 µg/mL (≈ 10.8 µM) in test [5]; 0.7 to 1.4 µg/mL in the test with B. subtilis (read-out: MIC); 2 to 4 µM in the test with B. subtilis (read-out: minimal inhibitory concentration (MIC)); ~32 µM and ~12 µg/mL against E. coli. Moreover, the “fold more potent against PDF than the acyclic parent/counterpart” value in [6] (cyclic versus acyclic inhibitor) is given as about 10 fold. The remaining activity at 1 µM at MMP-9 (inhibitor 1.0 μM) came out at 95%; at MMP-3 (inhibitor 1.0 μM), 97%; on MMP2 (inhibitor 1.0 μM), 96%; on MMP-1 (inhibitor 1.0 μM), 93%. The remaining activity at 10 µM at MMP-9 (inhibitor 10 μM) is 91%; on MMP-3 (inhibitor 10 μM), 91%; at MMP2 (inhibitor 10 μM), 92%; at MMP-1 (inhibitor 10 μM), 86%.
